Measurements taken from patent US9815819B2, “Complement pathway modulators and uses thereof” (priority 2012, dated 2017).

The compounds below were run against Recombinant human factor D (Homo sapiens (Human), UniProt P00746) (assay: Human Complement Factor D Assay: Method 1). Conditions: Factor D inhibition, Method 1: 10 nM factor D, 1 hour incubation with compound at room temperature, substrate Z-Lys-thiobenzyl, fluorescence readout; read-out: IC50.
Recombinant human factor D, sequence (P00746 26-253): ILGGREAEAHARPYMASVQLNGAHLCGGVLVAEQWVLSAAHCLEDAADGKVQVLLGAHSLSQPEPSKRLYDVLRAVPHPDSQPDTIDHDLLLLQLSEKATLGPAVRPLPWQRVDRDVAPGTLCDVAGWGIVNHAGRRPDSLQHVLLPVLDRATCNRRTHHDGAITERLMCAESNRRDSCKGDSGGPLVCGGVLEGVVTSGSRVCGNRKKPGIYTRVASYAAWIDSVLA
Type: biochemical
Experimental: Recombinant human factor D (expressed in E. coli and purified using standard methods) at 10 nM concentration is incubated with test compound at various concentrations for 1 hour at room temperature in 0.1 M Hepes buffer, pH 7.5, containing 1 mM MgCl2, 1 M NaCl and 0.05% CHAPS. […] IC50 values are calculated from percentage of inhibition of complement factor D-activity as a function of test compound concentration.
`NC(=O)c1nn(CC(=O)N2[C@@H]3C[C@@H]3C[C@H]2C(=O)N[C@@H]2C[C@@]2(F)c2ccccc2)c2cc(F)c(F)cc12` [Example 25, 5,6-Difluoro-1-{2-[(1R,3S,5R)-3-((1R,2R)-2-fluoro-2-phenyl-cyclopropylcarbamoyl)-2-aza-bicyclo[3.1.0]hex-2-yl]-2-oxo-ethyl}-1H-indazole-3-carboxylic acid amide] gave an IC50 of 110 nM. `NC(=O)c1nn(CC(=O)N2[C@@H]3C[C@@H]3C[C@H]2C(=O)N[C@@H]2C[C@@]2(F)c2ccccc2)c2ccc(F)cc12` [Example 26, 5-Fluoro-1-{2-[(1R,3S,5R)-3-((1R,2R)-2-fluoro-2-phenyl-cyclopropylcarbamoyl)-2-aza-bicyclo[3.1.0]hex-2-yl]-2-oxo-ethyl}-1H-indazole-3-carboxylic acid amide] showed an IC50 of 60 nM. In the case of `CC(=O)c1nn(CC(=O)N2[C@H](C(=O)N[C@@H]3C[C@H]3c3ccccc3)C[C@@]3(CO)C[C@@H]23)c2ncccc12` [Example 28, (1R,3S,5S)-2-[2-(3-Acetyl-pyrazolo[3,4-b]pyridin-1-yl)-acetyl]-5-hydroxymethyl-2-aza-bicyclo[3.1.0]hexane-3-carboxylic acid((1R,2S)-2-phenyl-cyclopropyl)-amide], the IC50 is reported as 172 nM. Compound `CC(=O)c1nn(CC(=O)N2[C@H](C(=O)N[C@@H]3C[C@H]3c3ccccc3)C[C@@]3(CO)C[C@@H]23)c2cnccc12` [Example 29, (1R,3S,5S)-2-[2-(3-Acetyl-pyrazolo[3,4-c]pyridin-1-yl)-acetyl]-5-hydroxymethyl-2-aza-bicyclo[3.1.0]hexane-3-carboxylic acid((1R,2S)-2-phenyl-cyclopropyl)-amide] has an IC50 of 119 nM. Compound `NC(=O)c1nn(CC(=O)N2[C@H](C(=O)N[C@@H]3C[C@H]3c3ccccc3Cl)C[C@@]3(CO)C[C@@H]23)c2ccccc12` [Example 30, 1-(2-{(1R,3S,5S)-3-[(1R,2S)-2-(2-Chloro-phenyl)-cyclopropylcarbamoyl]-5-hydroxymethyl-2-aza-bicyclo[3.1.0]hex-2-yl}-2-oxo-ethyl)-1H-indazole-3-carboxylic acid amide] has an IC50 of 22 nM. `CC(=O)c1nn(CC(=O)N2[C@H](C(=O)N[C@@H]3C[C@H]3c3ccccc3Cl)C[C@@]3(CO)C[C@@H]23)c2cnccc12` [Example 31, (1R,3S,5S)-2-[2-(3-Acetyl-pyrazolo[3,4-c]pyridin-1-yl)-acetyl]-5-hydroxymethyl-2-aza-bicyclo[3.1.0]hexane-3-carboxylic acid[(1R,2S)-2-(2-chloro-phenyl)-cyclopropyl]-amide] gave an IC50 of 37 nM. In the case of `CC(=O)c1nn(CC(=O)N2[C@@H]3C[C@@H]3C[C@H]2C(=O)NC2CC2c2ccc(OC(F)F)cc2)c2cnccc12` (stereo partly drawn) [Example 32, (1R,3S,5R)-2-[2-(3-Acetyl-pyrazolo[3,4-c]pyridin-1-yl)-acetyl]-2-aza-bicyclo[3.1.0]hexane-3-carboxylic acid[2-(4-difluoromethoxy-phenyl)-cyclopropyl]-amide], the IC50 is reported as 326 nM. With `CC(=O)c1nn(CC(=O)N2[C@@H]3C[C@@H]3C[C@H]2C(=O)NC2CC2c2cccc(C(F)(F)F)c2)c2cnccc12` (stereo partly drawn) [Example 33, (1R,3S,5R)-2-[2-(3-Acetyl-pyrazolo[3,4-c]pyridin-1-yl)-acetyl]-2-aza-bicyclo[3.1.0] hexane-3-carboxylic acid [2-(3-trifluoromethyl-phenyl)-cyclopropyl]-amide] the IC50 was 550 nM. With `CC(=O)c1nn(CC(=O)N2[C@@H]3C[C@@H]3C[C@H]2C(=O)NC2CC2c2ccc(C)c(C)c2)c2cnccc12` (stereo partly drawn) [Example 34, (1R,3S,5R)-2-[2-(3-Acetyl-pyrazolo[3,4-c]pyridin-1-yl)-acetyl]-2-aza-bicyclo[3.1.0] hexane-3-carboxylic acid [2-(3,4-dimethyl-phenyl)-cyclopropyl]-amide] the IC50 was 112 nM. With `CC(=O)c1nn(CC(=O)N2[C@@H]3C[C@@H]3C[C@H]2C(=O)NC2CC(c3ccccc3)C2)c2ncccc12` (stereo partly drawn) [Example 35, (1R,3S,5R)-2-[2-(3-Acetyl-pyrazolo[3,4-b]pyridin-1-yl)-acetyl]-2-aza-bicyclo[3.1.0] hexane-3-carboxylic acid (3-phenyl-cyclobutyl)-amide] the IC50 was 902 nM. `CC(=O)c1nn(CC(=O)N2[C@@H]3C[C@@H]3C[C@H]2C(=O)NC2CC(c3ccccc3F)C2)c2ncccc12` (stereo partly drawn) [Example 36, (1R,3S,5R)-2-[2-(3-Acetyl-pyrazolo[3,4-b]pyridin-1-yl)-acetyl]-2-aza-bicyclo[3.1.0] hexane-3-carboxylic acid [3-(2-fluoro-phenyl)-cyclobutyl]-amide] gave an IC50 of 466 nM. Work on `CC(=O)c1nn(CC(=O)N2[C@@H]3C[C@@H]3C[C@H]2C(=O)NC2CCC(c3ccccc3)CC2)c2cnccc12` (stereo partly drawn) [Example 37, (1R,3S,5R)-2-[2-(3-Acetyl-pyrazolo[3,4-c]pyridin-1-yl)-acetyl]-2-aza-bicyclo[3.1.0] hexane-3-carboxylic acid (4-phenyl-cyclohexyl)-amide] yielded an IC50 of 1060 nM. `NC(=O)c1nn(CC(=O)N2[C@@H]3C[C@@H]3C[C@H]2C(=O)N[C@H]2C[C@]2(F)c2ccccc2)c2ccccc12` [Example 38, 1-{2-[(1R,3S,5R)-3-((1S,2S)-2-fluoro-2-phenyl-cyclopropylcarbamoyl)-2-aza-bicyclo[3.1.0]hex-2-yl]-2-oxo-ethyl}-1H-indazole-3-carboxylic acid amide] gave an IC50 of 635 nM. `NC(=O)c1nn(CC(=O)N2[C@@H]3C[C@@H]3C[C@H]2C(=O)N[C@@H]2C[C@@]2(F)c2ccccc2)c2ccccc12` [Example 39, 1-{2-[(1R,3S,5R)-3-((1R,2R)-2-fluoro-2-phenyl-cyclopropylcarbamoyl)-2-aza-bicyclo[3.1.0]hex-2-yl]-2-oxo-ethyl}-1H-indazole-3-carboxylic acid amide] showed an IC50 of 48 nM. In the case of `NC(=O)c1nn(CC(=O)N2C[C@H](F)C[C@H]2C(=O)N[C@@H]2C[C@H]2c2ccccc2F)c2cnccc12` [Example 40, 1-(2-{(2S,4R)-4-Fluoro-2-[(1R,2S)-2-(2-fluoro-phenyl)-cyclopropylcarbamoyl]-pyrrolidin-1-yl}-2-oxo-ethyl)-1H-pyrazolo[3,4-c]pyridine-3-carboxylic acid amide], the IC50 is reported as 142 nM. Compound `NC(=O)c1nn(CC(=O)N2C[C@H](F)C[C@H]2C(=O)N[C@H]2C[C@@H]2c2ccccc2F)c2cnccc12` [Example 41, 1-(2-{(2S,4R)-4-Fluoro-2-[(1S,2R)-2-(2-fluoro-phenyl)-cyclopropylcarbamoyl]-pyrrolidin-1-yl}-2-oxo-ethyl)-1H-pyrazolo[3,4-c]pyridine-3-carboxylic acid amide] has an IC50 of 1190 nM. `NC(=O)c1nn(CC(=O)N2[C@@H]3C[C@@H]3C[C@H]2C(=O)N[C@H]2C[C@]2(F)c2ccccc2)c2cnccc12` [Example 42, 1-{2-[(1R,3S,5R)-3-((1S,2S)-2-Fluoro-2-phenyl-cyclopropylcarbamoyl)-2-aza-bicyclo[3.1.0]hex-2-yl]-2-oxo-ethyl}-1H-pyrazolo[3,4-c]pyridine-3-carboxylic acid amide] was tested, and the IC50 was 3650 nM. In the case of `NC(=O)c1nn(CC(=O)N2[C@@H]3C[C@@H]3C[C@H]2C(=O)N[C@@H]2C[C@@]2(F)c2ccccc2)c2cnccc12` [Example 43, 1-{2-[(1R,3S,5R)-3-((1R,2R)-2-Fluoro-2-phenyl-cyclopropylcarbamoyl)-2-aza-bicyclo[3.1.0]hex-2-yl]-2-oxo-ethyl}-1H-pyrazolo[3,4-c]pyridine-3-carboxylic acid amide], the IC50 is reported as 214 nM. With `CC(=O)c1nn(CC(=O)N2[C@@H]3C[C@@H]3C[C@H]2C(=O)N[C@@H]2C[C@@]2(F)c2ccccc2)c2ncccc12` [Example 44, (1R,3S,5R)-2-[2-(3-Acetyl-pyrazolo[3,4-b]pyridin-1-yl)-acetyl]-2-aza-bicyclo[3.1.0] hexane-3-carboxylic acid ((1R,2R)-2-fluoro-2-phenyl-cyclopropyl)-amide] the IC50 was 66 nM. `CC(=O)c1nn(CC(=O)N2[C@@H]3C[C@@H]3C[C@H]2C(=O)N[C@H]2C[C@]2(F)c2ccccc2)c2ncccc12` [Example 45, (1R,3S,5R)-2-[2-(3-Acetyl-pyrazolo[3,4-b]pyridin-1-yl)-acetyl]-2-aza-bicyclo[3.1.0] hexane-3-carboxylic acid ((1S,2S)-2-fluoro-2-phenyl-cyclopropyl)-amide] gave an IC50 of 10400 nM. With `CC(=O)c1nn(CC(=O)N2[C@@H]3C[C@@H]3C[C@H]2C(=O)N[C@@H]2C[C@@]2(F)c2ccccc2)c2cnccc12` [Example 46, (1R,3S,5R)-2-[2-(3-Acetyl-pyrazolo[3,4-c]pyridin-1-yl)-acetyl]-2-aza-bicyclo[3.1.0] hexane-3-carboxylic acid ((1R,2R)-2-fluoro-2-phenyl-cyclopropyl)-amide] the IC50 was 32 nM. `CC(=O)c1nn(CC(=O)N2[C@@H]3C[C@@H]3C[C@H]2C(=O)N[C@H]2C[C@]2(F)c2ccccc2)c2cnccc12` [Example 47, (1R,3S,5R)-2-[2-(3-Acetyl-pyrazolo[3,4-c]pyridin-1-yl)-acetyl]-2-aza-bicyclo[3.1.0] hexane-3-carboxylic acid ((1S,2S)-2-fluoro-2-phenyl-cyclopropyl)-amide] showed an IC50 of 991 nM. With `Cc1cc2c(C(N)=O)nn(CC(=O)N3[C@@H]4C[C@@H]4C[C@H]3C(=O)N[C@@H]3C[C@@]3(F)c3ccccc3)c2cn1` [Example 48, 1-{2-[(1R,3S,5R)-3-((1R,2R)-2-Fluoro-2-phenyl-cyclopropylcarbamoyl)-2-aza-bicyclo[3.1.0]hex-2-yl]-2-oxo-ethyl}-5-methyl-1H-pyrazolo[3,4-c]pyridine-3-carboxylic acid amide] the IC50 was 30 nM. `Cc1cc2c(C(N)=O)nn(CC(=O)N3[C@@H]4C[C@@H]4C[C@H]3C(=O)N[C@H]3C[C@]3(F)c3ccccc3)c2cn1` [Example 49, 1-{2-[(1R,3S,5R)-3-((1S,2S)-2-Fluoro-2-phenyl-cyclopropylcarbamoyl)-2-aza-bicyclo[3.1.0]hex-2-yl]-2-oxo-ethyl}-5-methyl-1H-pyrazolo[3,4-c]pyridine-3-carboxylic acid amide] gave an IC50 of 1190 nM. For `CC(=O)c1nn(CC(=O)N2[C@@H]3C[C@@H]3C[C@H]2C(=O)N[C@@H]2C[C@H]2c2cccc(Cl)c2)c2ncccc12` [Example 54, (1R,3S,5R)-2-[2-(3-Acetyl-pyrazolo[3,4-b]pyridin-1-yl)-acetyl]-2-aza-bicyclo[3.1.0]hexane-3-carboxylic acid[(1R,2S)-2-(3-chloro-phenyl)-cyclopropyl]-amide], the IC50 was 225 nM.
